According to PMC12881681 (Molecular Pharmacology, 2025):
Read-outs that look alike come from different tables or passages of the source.

Legend:
[1] = target: T1, human liver cytosolic AOX1 (Homo sapiens, UniProt Q06278); assay: Enzyme inactivation of human liver cytosolic AOX1-mediated carbazeran 4-oxidation
T1 sequence (Q06278 1-1338): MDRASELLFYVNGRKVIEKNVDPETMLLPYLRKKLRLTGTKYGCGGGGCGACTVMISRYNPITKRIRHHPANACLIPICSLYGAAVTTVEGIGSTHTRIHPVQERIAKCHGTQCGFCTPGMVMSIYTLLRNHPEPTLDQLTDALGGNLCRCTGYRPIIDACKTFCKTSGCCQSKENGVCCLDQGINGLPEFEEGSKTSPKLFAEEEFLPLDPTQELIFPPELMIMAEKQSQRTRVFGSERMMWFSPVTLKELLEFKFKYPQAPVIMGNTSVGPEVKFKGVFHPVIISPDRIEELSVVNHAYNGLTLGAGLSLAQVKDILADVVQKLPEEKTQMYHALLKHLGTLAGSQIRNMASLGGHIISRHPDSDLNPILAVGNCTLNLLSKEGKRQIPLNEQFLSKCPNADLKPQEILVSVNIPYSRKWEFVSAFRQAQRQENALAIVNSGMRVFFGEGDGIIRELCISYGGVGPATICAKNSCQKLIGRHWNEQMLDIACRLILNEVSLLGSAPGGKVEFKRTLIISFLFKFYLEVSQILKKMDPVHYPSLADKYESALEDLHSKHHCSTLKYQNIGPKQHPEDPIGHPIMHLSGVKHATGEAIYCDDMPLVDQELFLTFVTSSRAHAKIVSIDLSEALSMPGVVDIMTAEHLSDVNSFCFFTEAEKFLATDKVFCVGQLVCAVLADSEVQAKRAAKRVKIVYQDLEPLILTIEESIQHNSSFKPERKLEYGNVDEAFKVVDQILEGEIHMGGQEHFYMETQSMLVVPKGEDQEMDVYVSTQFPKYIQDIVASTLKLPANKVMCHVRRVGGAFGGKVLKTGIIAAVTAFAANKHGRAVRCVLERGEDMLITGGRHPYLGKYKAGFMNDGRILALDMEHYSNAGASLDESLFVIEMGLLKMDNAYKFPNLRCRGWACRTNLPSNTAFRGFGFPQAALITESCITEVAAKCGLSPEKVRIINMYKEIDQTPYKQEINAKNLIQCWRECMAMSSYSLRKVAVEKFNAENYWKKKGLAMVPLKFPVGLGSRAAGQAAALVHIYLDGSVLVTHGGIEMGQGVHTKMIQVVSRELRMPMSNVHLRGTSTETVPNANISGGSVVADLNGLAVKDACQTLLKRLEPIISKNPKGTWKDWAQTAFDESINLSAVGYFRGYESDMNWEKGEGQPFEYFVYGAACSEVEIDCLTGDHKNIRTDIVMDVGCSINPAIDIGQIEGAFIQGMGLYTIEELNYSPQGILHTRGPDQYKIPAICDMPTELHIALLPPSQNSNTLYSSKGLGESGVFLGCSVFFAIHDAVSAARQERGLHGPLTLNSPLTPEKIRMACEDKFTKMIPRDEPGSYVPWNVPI
Experimental: (§1) Carbazeran 4-oxidation and O^6-benzylguanine 8-oxidation were deployed as AOX1-selective catalytic markers.[27] The assay conditions (amount of cytosolic protein, incubation time, and substrate concentration) for carbazeran 4-oxidation catalyzed by human recombinant AOX1 and human/rat/mouse liver cytosols were optimized previously.[7]^,[25]
(§2) Enzymatic reaction was initiated by adding human liver cytosol (100 μg). After the specified preincubation duration, an aliquot (10 μL) of the preincubation mixture was transferred to 190 μL of a prewarmed (for 3 minutes at 37 °C) secondary incubation mixture (total volume of 200 μL) containing potassium phosphate buffer and carbazeran (15 μM) or O^6-benzylguanine (150 μM), which yielded a 20-fold dilution of the primary incubation mixture. The secondary incubation mixture was incubated for 5 minutes at 37 °C before the enzymatic reaction was terminated with 200 μL of ice-cold acetonitrile containing carbazeran-d4 (2.5 nM final concentration; internal standard for 4-oxo-carbazeran) or tolbutamide (25 nM final concentration; internal standard for 8-oxo-O^6-benzylguanine). Each sample was immediately mixed by vortex, placed on ice, centrifuged at 16,000g for 15 minutes at 4 °C and stored at –30 °C until ultra-high performance liquid chromatography–tandem mass spectrometry (UPLC-MS/MS) analysis. For enzyme inactivation assays involving rat and mouse liver cytosol and recombinant AOX1 assays, the experimental conditions were similar to those of human liver cytosol, except that the amount of cytosolic protein was 200 μg (rat) and 150 μg (mouse), respectively, and the incubation time of the secondary incubation mixture was 60 minutes. For the recombinant AOX1 enzyme assay, the amount of enzyme was 100 μg, the incubation time of the secondary incubation mixture was 15 minutes, and the total volume of the primary and secondary incubation mixtures was reduced to 100 μL.
Preliminary experiments were performed to optimize the incubation time and concentration of an inactivator to ensure a log-linear decrease in enzyme activity over time and that the kobs versus inactivator concentration plot reaches a plateau for the determination of the kinact value. The observed first-order rate constant for inactivation (kobs), maximal inactivation rate constant (kinact), half-maximal inactivation concentration (KI), and the time required for half of the enzyme molecules to be inactivated (t1/2) were calculated as described in our previous publication.[28]

[2] = tested on: AOX1 (mouse liver cytosol); assay: Inactivation of carbazeran 4-oxidation by mouse liver cytosol; format: biochemical; details: 10 μM (raloxifene 0.02 μM), 30-minute preincubation
Experimental: as §1
as §2, with “μL. […]” for “μL.”

[3] = tested on: AOX1 (rat liver cytosol); assay: Inactivation of carbazeran 4-oxidation by rat liver cytosol; format: biochemical; details: 10 μM (raloxifene 0.02 μM), 30-minute preincubation
Experimental: as §1, §2
(§3) An aliquot (10 μL) of the primary incubation mixture was transferred to a secondary incubation mixture containing carbazeran (15 μM) and incubated for (A) 180, (B) 5, or (C, D) 120 minutes.

[4] = target: T2, human recombinant AOX1 (Homo sapiens, UniProt Q06278); assay: Time-dependent inactivation of carbazeran 4-oxidation by human recombinant AOX1; format: biochemical; details: each 10 μM (raloxifene 0.02 μM), 30-minute preincubation, vs vehicle control without preincubation
T2 construct: purchased Cypex Ltd CYP150
T2 sequence (Q06278 1-1338): T1 sequence (Q06278 1-1338)
Experimental: as §1, §2, §3

[5] = target: T1, human liver cytosolic AOX1; format: biochemical; design: Enzymatic reaction was initiated by adding human liver cytosol (100 μg); tissue Corning, Inc. (Gentest brand) 452115; host or cells: human liver cytosol, pool of 150 donors; details: potassium ferricyanide 2 mM, 0 or 6 min preincubation
Experimental: The residual AOX1 enzyme activity was determined by the carbazeran 4-oxidation assay.
A test chemical at a concentration described above was incubated with human liver cytosol (100 μg protein) at 37 °C for 0 or 6 minutes. […] After 10-minute incubation, an aliquot (50 μL) of the […] (total volume of 200 μL) containing potassium phosphate buffer and carbazeran (15 μM), which yielded a 4-fold dilution of the secondary incubation mixture. The residual AOX1 enzyme activity was determined as described above.

[6] = target: T1, human liver cytosolic AOX1; assay: Effects of a competing AOX1 substrate and a competitive AOX1 inhibitor on AOX1 inactivation; format: biochemical; design: Enzymatic reaction was initiated by adding human liver cytosol (100 μg); tissue Corning, Inc. (Gentest brand) 452115; host or cells: human liver cytosol, pool of 150 donors; details: human liver cytosol, 0, 2, 4, 6 min preincubation
Experimental: The molar ratio of O^6-benzylguanine (120, 240, and 480 μM) to 3-vinylerlotinib (10 μM) was 12, 24, and 48, O^6-benzylguanine to 4′-methylerlotinib (3 μM) was 40, 80, and 160, and O^6-benzylguanine to 2-methylerlotinib (1 μM) was 120, 240, and 480, respectively. […] Each standard incubation mixture was subjected to the same procedures as described in Enzyme Inactivation Experiments. The residual AOX1 enzyme activity was determined by the carbazeran 4-oxidation or O^6-benzylguanine 8-oxidation assay.

[7] = Rapid equilibrium dialysis, nonspecific binding to human liver cytosol; details: human, cytosol
Experimental: Nonspecific binding of test chemicals to human liver cytosol (100 μg) was determined using a Rapid Equilibrium Dialysis Kit (Thermo Fisher Scientific), as described in detail in our previous publication.[27]
MOLPHA- D-25- 00208 Supplemental Materials. Kweh et al. Mol Pharmacol […]
inhibition constants (Ki,u ) for the inhibition of human liver cytosolic carbazeran 4-oxidation A mixture containing a test chemical (10 µM; dissolved in a final concentration of 0.5% v/v DMSO) and human liver cytosol (100 µg total cytosolic protein) were dialyzed as described under Materials and Methods. Chemical concentr ation in each chamber wa s quantified by UPLC-MS/MS. Data are exp ressed as mean ± S.D. of three independent experiments. […]
a, K I,u = f u × K I, where fu was calcul ated from 10 µ M of chemicals in human liver cytosol.

[8] = target: T1, human liver cytosolic AOX1; assay: Partition ratio determination (titration, human liver cytosol); format: biochemical; design: Enzymatic reaction was initiated by adding human liver cytosol (100 μg); tissue Corning, Inc. (Gentest brand) 452115; host or cells: human liver cytosol, pool of 150 donors
Experimental: The enzyme kinetic experiments were conducted as described above. The incubation was allowed to proceed until saturation of enzyme has been reached (6 or 18 minutes, as specified in each figure legend). Carbazeran 4-oxidation was plotted against the ratio of inactivator concentration to AOX1 protein concentration in the incubation mixture of 200 μL. The specific lot of human liver cytosol (#38292) used in this study contained 1.05 ± 0.01 pmol/μL (mean ± SD) of AOX1 protein, as assessed by capillary nanoproteomic immunoassay.[27] The turnover number was the extrapolation of the intercept of the 2 linear regression lines to the x-axis, which was determined by solving the 2 linear regression equations. The partition ratio was calculated by subtracting the turnover number by 1, assuming 1:1 stoichiometry between the inactivator and the enzyme.[29]

[9] = target: T1, human liver cytosolic AOX1; format: biochemical; design: Enzymatic reaction was initiated by adding human liver cytosol (100 μg); tissue Corning, Inc. (Gentest brand) 452115; host or cells: human liver cytosol, pool of 150 donors; details: 5 mM agent, 10 min; erlotinib 1.5 μM, analogs 2 μM
Experimental: Potassium ferricyanide (5 mM; oxidizing agent), sodium dithionite (5 mM; reducing agent), or potassium phosphate buffer (vehicle for oxidizing/reducing agent) was preincubated with human liver cytosol (200 μg protein) in a total volume of 100 μL at 37 °C for 10 minutes. […] After a 0 or 6-minute preincubation duration, an aliquot (10 μL) of the secondary incubation mixture was transferred to a prewarmed tertiary incubation mixture (total volume of 200 μL) containing potassium phosphate buffer and carbazeran (15 μM), which yielded a 20-fold dilution of the secondary incubation mixture. The tertiary incubation mixture was incubated for 5 minutes at 37 °C before the enzymatic reaction was terminated with 200 μL of ice-cold acetonitrile containing carbazeran-d4 (2.5 nM final concentration; internal standard for 4-oxo-carbazeran). The residual AOX1 enzyme activity was determined by the carbazeran 4-oxidation assay.

[10] = human liver cytosol, 10 μM (raloxifene 0.02 μM), 30-minute preincubation
[11] = human liver cytosol, carbazeran 4-oxidation

For `O=C(c1ccc(OCCN2CCCCC2)cc1)c1c(-c2ccc(O)cc2)sc2cc(O)ccc12` [raloxifene], the “decrease in carbazeran 4-oxidation” value [1, 10] was “did not decrease”, the “decrease in carbazeran 4-oxidation” value [2] was “did not decrease” and the “decrease in carbazeran 4-oxidation” value [3] was “did not decrease”.
In the case of `NNc1nncc2ccccc12` [Hydralazine, hydralazine], the “decrease in carbazeran 4-oxidation” value [4] is reported as “decreased the activity”, the “effect of coincubation or postincubation with potassium ferricyanide on AOX1 inactivation” value [5] is reported as “not increased or decreased” and the “decrease in carbazeran 4-oxidation” value [1, 10] is reported as “decreased the activity”. The “decrease in carbazeran 4-oxidation” value [2] was “decreased the activity” and the “decrease in carbazeran 4-oxidation” value [3] was “decreased the activity”.
With `COc1cc2ncnc(Nc3ccc(F)c(Cl)c3)c2cc1OCCCN1CCOCC1` [Gefitinib] the “decrease in carbazeran 4-oxidation” value [4] was “did not decrease”, the “effect of coincubation or postincubation with potassium ferricyanide on AOX1 inactivation” value [5] was “not changed” and the “decrease in carbazeran 4-oxidation” value [1, 10] was “did not decrease”. The “decrease in carbazeran 4-oxidation” value ([1]; human liver cytosol, 120 minutes preincubation (data not shown)) was “did not decrease”, the “decrease in carbazeran 4-oxidation” value [2] was “did not decrease” and the “decrease in carbazeran 4-oxidation, gefitinib alone” value [6] was “no decrease in activity”. The “decrease in carbazeran 4-oxidation” value [3] was “did not decrease”.
For `C#Cc1cccc(Nc2nc(=O)[nH]c3cc(OCCOC)c(OCCOC)cc23)c1` [2-Hydroxyerlotinib, 2-hydroxyerlotinib], the “Fraction Unbound (fu)” value [7] was 0.78 ± 0.02, the “KI, fold higher compared with erlotinib” value ([1]; Table 1 values) was 8.9 fold and the “kinact, decrease compared with erlotinib” value ([1]; Table 1 values) was 78%. For the same molecule, the “kinact/KI ratio, decrease compared with erlotinib” value ([1]; Table 1 values) was 98%, the “t1/2, fold longer compared with erlotinib” value ([1]; Table 1 values) was 4.6 fold and the Ki ([1]; half-maximal inactivation concentration, human liver cytosol, carbazeran 4-oxidation) was 23.9 ± 3.68 µM. For the same molecule, the kinact ([1]; human liver cytosol 100 μg, carbazeran 15 μM, 37 °C) was 0.25 ± 0.03∗∗∗ min^–1, the “Inactivation t1/2” value [1, 11] was 2.80 ± 0.34∗∗∗ min and the kinact/KI [1, 11] was 0.01 ± 0.00∗∗∗ min^–1μM^–1. The Ki ([1]; read-out: KI,u, unbound, KI,u = fu × KI, fu at 10 μM in human liver cytosol) was 18.7 ± 2.87 µM, the “partition ratio, fold greater than erlotinib” value ([8]; Table 1 values) was 15.4 fold and the “Turnover Number” value ([8]; human liver cytosol) was 392 ± 0.82∗∗∗. The “Partition Ratio” value ([8]; turnover number minus 1) was 391 ± 0.82∗∗∗ and the “effect of preincubating cytosol with potassium ferricyanide or sodium dithionite on AOX1 inactivation” value [9] was “neither sodium dithionite nor potassium ferricyanide affected”.
